These are literature values, as cited in article PMC10994248 (The Oncologist, 2024).

Structures are written as SMILES.

The subject of the data set is FGFR2 fusion or rearranged cholangiocarcinoma. Conditions: after failure of first-line chemotherapy ref 20-22; cited from earlier work.

For `CCN1CCN(c2ccc(Nc3cc(N(C)C(=O)Nc4c(Cl)c(OC)cc(OC)c4Cl)ncn3)cc2)CC1` [infigratinib], the Objective response rate is reported as 23%. In the case of `CCN1C(=O)N(c2c(F)c(OC)cc(OC)c2F)Cc2cnc3[nH]c(CN4CCOCC4)cc3c21` [pemigatinib], the Objective response rate was 36%.
